Source: patent US20050245399A1, “Pyrazole derivatives as herbicidal compositions containing them” (ISHIHARA SANGYO KAISHA, LTD., priority 2004, published 2005)

Legend:
Type in all cases: in vivo
[1] = test system: crabgrass (Digitaria sanguinalis L.): DIGSA; experiment: Test Example 1 pre-emergence herbicidal activity, DIGSA; settings: Rate 63 g a.i./ha, visually observed 20th to 23rd day after application
In short: (§1)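 Pots of upland soil were sown, and one day later WP or EC formulations at set active-ingredient rates were sprayed pre-emergence in 500 L/ha water. Growth control scored visually 20–23 days after application, 0 (as untreated) to 100 (complete kill).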

[2] = test system: green foxtail (Setaria viridis L.): SETVI; experiment: Test Example 1 pre-emergence herbicidal activity, SETVI; settings: Rate 63 g a.i./ha, visually observed 20th to 23rd day after application
In short: as §1

[3] = test system: redroot pigweed (Amaranthus retroflexus L.): AMARE; experiment: Test Example 1 pre-emergence herbicidal activity, AMARE; settings: Rate 63 g a.i./ha, visually observed 20th to 23rd day after application
In short: as §1

[4] = test system: prickly sida (Sida spinosa L.): SEDSP; experiment: Test Example 1 pre-emergence herbicidal activity, SIDSP; settings: Rate 63 g a.i./ha, visually observed 20th to 23rd day after application
In short: as §1

[5] = test system: wheat (Triticum aestivum L.): TRZAX; experiment: Test Example 1 pre-emergence herbicidal activity, TRZAX; settings: Rate 63 g a.i./ha, visually observed 20th to 23rd day after application
In short: as §1

[6] = test system: corn (Zea mays L.): ZEAMX; experiment: Test Example 1 pre-emergence herbicidal activity, ZEAMX; settings: Rate 63 g a.i./ha, visually observed 20th to 23rd day after application
In short: as §1

[7] = test system: soybean (Glycine max Merr.): GLXMA; experiment: Test Example 1 pre-emergence herbicidal activity, GLXMA; settings: Rate 63 g a.i./ha, visually observed 20th to 23rd day after application
In short: as §1

[8] = test system: crabgrass (Digitaria sanguinalis L.), DIGSA; experiment: Test Example 2 post-emergence (foliage treatment) herbicidal activity, DIGSA
In short: (§2)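 Plants grown in upland soil pots were sprayed on foliage at set leaf stages (ECHCG 1.1-2.1, DIGSA 1.0-2.0, AMARE 0.1-1.5, ORYSA 1.0-2). Formulated compound was applied at predetermined active-ingredient amounts in 500 L/ha water with 0.1% (v/v) spreader. Growth control (0–100%) was visually scored 20–23 days later.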

[9] = test system: green foxtail (Setaria viridis L.), SETVI; experiment: Test Example 2 post-emergence (foliage treatment) herbicidal activity, SETVI
In short: (§3)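 Each species was evaluated for growth suppression by eye, 0% matching untreated and 100% meaning death, some 20 to 23 days after a single post-emergence foliar treatment applied in 500 L/ha of water carrying 0.1% (v/v) agricultural spreader.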

[10] = test system: redroot pigweed (Amaranthus retroflexus L.), AMARE; experiment: Test Example 2 post-emergence (foliage treatment) herbicidal activity, AMARE
In short: as §2

[11] = test system: prickly sida (Sida spinosa L.), SIDSP; experiment: Test Example 2 post-emergence (foliage treatment) herbicidal activity, SIDSP
In short: as §3

[12] = test system: velvetleaf (Abutilon theophrasti), ABUTH; experiment: Test Example 2 post-emergence (foliage treatment) herbicidal activity, ABUTH
In short: as §3

[13] = test system: common cocklebur (Xanthium strumarium L.), XANST; experiment: Test Example 2 post-emergence (foliage treatment) herbicidal activity, XANST
Text: Upland field soil was put into a 1/170,000 ha pot, and seeds of various plants were sown. Then, when the plants reached predetermined leaf stages {1. barnyardgrass (Echinochloa crus-galli L.), ECHCG: 1.1-2.1 leaf stage, 2. crabgrass (Digitaria sanguinalis L.), DIGSA: 1.0-2.0 leaf stage, 3. green foxtail (Setaria viridis L.), SETVI: 1.0-2.2 leaf stage, 4. redroot pigweed (Amaranthus retroflexus L.), AMARE: 0.1-1.5 leaf stage, 5. prickly sida (Sida spinosa L.), SIDSP: 0.1-0.6 leaf stage, 6. velvetleaf (Abutilon theophrasti), ABUTH: 0.1-0.6 leaf stage, 7. common cocklebur (Xanthium strumarium L.), XANST: 0.1 leaf stage, 8. rice (Oryza sativa L.), ORYSA; 1.0-2 leaf stage, 9. wheat (Triticum aestivum L.), TRZAX: 2.3-3.5 leaf stage, 10. corn (Zea mays L.), ZEAMXN 2.1-2.6 leaf stage, 11. soybean (Glycine max Merr.), GLXMA: primary leaf stage}, a wettable powder or emulsifiable concentrate having the compound of the present invention formulated in accordance with a usual formulation method, was weighed so that the active ingredient would be a predetermined amount, and diluted with water in an amount of 500 L/ha. To the diluted solution, 0.1% (v/v) of an agricultural spreader was added. The herbicide adjusted was applied by a small size sprayer for foliage treatment. On the 20th to 23rd day after the application of the herbicide, the growth of the respective plants was visually observed, and the herbicidal effects were evaluated by growth controlling degrees (%) ranging from 0 (equivalent to the untreated control) to 100 (complete kill), whereby the results shown in Table 5, were obtained. Compound Nos. in Table 5 correspond to Compound Nos. in Table 1 and 2 given hereinbefore.

[14] = test system: wheat (Triticum aestivum L.), TRZAX; experiment: Test Example 2 post-emergence (foliage treatment) herbicidal activity, TRZAX
In short: as §3

[15] = test system: corn (Zea mays L.), ZEAMX; experiment: Test Example 2 post-emergence (foliage treatment) herbicidal activity, ZEAMX
In short: as §3

[16] = test system: soybean (Glycine max Merr.), GLXMA; experiment: Test Example 2 post-emergence (foliage treatment) herbicidal activity, GLXMA
In short: as §3

Row | SMILES | Pre-emergence Herbicidal Activity DIGSP (growth controlling degree) [1] | Pre-emergence Herbicidal Activity SETVI (growth controlling degree) [2] | Pre-emergence Herbicidal Activity AMARE (growth controlling degree) [3] | Pre-emergence Herbicidal Activity SIDSP (growth controlling degree) [4] | Pre-emergence Herbicidal Activity TRZAX (growth controlling degree) [5] | Pre-emergence Herbicidal Activity ZEAMX (growth controlling degree) [6] | Pre-emergence Herbicidal Activity GLXMA (growth controlling degree) [7] | growth controlling degree, DIGSP ([8]; 63 g a.i./ha) | growth controlling degree, SETVI ([9]; 63 g a.i./ha) | growth controlling degree, AMARE ([10]; 63 g a.i./ha) | growth controlling degree, SIDSP ([11]; 63 g a.i./ha) | growth controlling degree, ABUTH ([12]; 63 g a.i./ha) | growth controlling degree, XANST ([13]; 63 g a.i./ha) | growth controlling degree, TRZAX ([14]; 63 g a.i./ha) | growth controlling degree, ZEAMX ([15]; 63 g a.i./ha) | growth controlling degree, GLXMA ([16]; 63 g a.i./ha) | further results
1 | Cn1nc(-c2c(F)cc(Cl)c(OC(F)F)c2N)c(Cl)c1OC(F)F [Compound 1-81, 3-chloro-6-[4-chloro-5-(difluoromethoxy)-1-methyl-1H-pyrazol-3-yl]-2-(difluoromethoxy)-5-fluorobenzenamine] | 100% | 100% | 100% | 100% | 20% | 10% | 20% | – | – | – | – | – | – | – | – | – | growth controlling degree, DIGSP ([8]; 125 g a.i./ha): 100%; growth controlling degree, SETVI ([9]; 125 g a.i./ha): 100%; growth controlling degree, AMARE ([10]; 125 g a.i./ha): 100%; growth controlling degree, SIDSP ([11]; 125 g a.i./ha): 100%; growth controlling degree, ABUTH ([12]; 125 g a.i./ha): 100%; growth controlling degree, XANST ([13]; 125 g a.i./ha): 100%; growth controlling degree, TRZAX ([14]; 125 g a.i./ha): 100%; growth controlling degree, ZEAMX ([15]; 125 g a.i./ha): 90%; growth controlling degree, GLXMA ([16]; 125 g a.i./ha): 80%
2 | COc1c(Cl)cc(F)c(-c2nn(C)c(OC(F)F)c2Cl)c1NC(=O)C=C(C)C [Compound 1-9] | 98% | 100% | 100% | 100% | 40% | 70% | 90% | 98% | 100% | 100% | 100% | 100% | 70% | 40% | 70% | 90% | –
3 | COc1c(Cl)cc(F)c(-c2nn(C)c(OC(F)F)c2Cl)c1NC1CCCC1 [Compound 1-60] | 10% | 30% | 95% | 0% | 0% | 0% | 0% | 80% | 100% | 100% | 100% | 100% | 100% | 40% | 50% | 70% | –
4 | COc1c(Cl)cc(F)c(-c2nn(C)c(OC(F)F)c2Cl)c1N(C=O)CC(=O)c1ccc(Cl)cc1 [Compound 1-13] | 70% | 90% | 100% | 100% | 30% | 40% | 50% | 70% | 90% | 100% | 100% | 100% | 50% | 30% | 40% | 50% | –
5 | COc1c(Cl)cc(F)c(-c2nn(C)c(OC(F)F)c2Cl)c1N(C=O)C1CCCC1 [Compound 1-10] | 60% | 100% | 100% | 100% | 40% | 40% | 50% | 60% | 100% | 100% | 100% | 100% | 100% | 40% | 40% | 50% | –
6 | COc1c(Cl)cc(F)c(-c2nn(C)c(OC(F)F)c2Cl)c1N(C)C=O [Compound 1-6] | 100% | 50% | 100% | 40% | 20% | 30% | 0% | 70% | 100% | 100% | 100% | 100% | 95% | 30% | 30% | 90% | –
7 | COc1c(Cl)cc(F)c(-c2nn(C)c(OC(F)F)c2Cl)c1NC(C)C [Compound 1-59] | 100% | 100% | 100% | 100% | 30% | 10% | 30% | 98% | 100% | 100% | 100% | 100% | 100% | 50% | 80% | 95% | –
8 | COc1c(Cl)cc(F)c(-c2nn(C)c(OC(F)F)c2Cl)c1N(C(=O)C=C(C)C)C(=O)C=C(C)C [Compound 1-11] | 40% | 100% | 100% | 100% | 20% | 30% | 50% | 40% | 100% | 100% | 100% | 100% | 30% | 20% | 30% | 50% | –
